Data as given in US20250017889A1, “INHIBITORS OF P1B-TYPE ATPASES” (THE CURATORS OF THE UNIVERSITY OF MISSOURI, priority 2021, published 2025).

Biological target: T1, ATP7A(E1030K) (Homo sapiens, UniProt Q04656, E1030K)
T1 construct: expressed in transfected cells; host or cells: HEK293 (detergent-free lysate)
T1 sequence (Q04656 1-1500 E1030K): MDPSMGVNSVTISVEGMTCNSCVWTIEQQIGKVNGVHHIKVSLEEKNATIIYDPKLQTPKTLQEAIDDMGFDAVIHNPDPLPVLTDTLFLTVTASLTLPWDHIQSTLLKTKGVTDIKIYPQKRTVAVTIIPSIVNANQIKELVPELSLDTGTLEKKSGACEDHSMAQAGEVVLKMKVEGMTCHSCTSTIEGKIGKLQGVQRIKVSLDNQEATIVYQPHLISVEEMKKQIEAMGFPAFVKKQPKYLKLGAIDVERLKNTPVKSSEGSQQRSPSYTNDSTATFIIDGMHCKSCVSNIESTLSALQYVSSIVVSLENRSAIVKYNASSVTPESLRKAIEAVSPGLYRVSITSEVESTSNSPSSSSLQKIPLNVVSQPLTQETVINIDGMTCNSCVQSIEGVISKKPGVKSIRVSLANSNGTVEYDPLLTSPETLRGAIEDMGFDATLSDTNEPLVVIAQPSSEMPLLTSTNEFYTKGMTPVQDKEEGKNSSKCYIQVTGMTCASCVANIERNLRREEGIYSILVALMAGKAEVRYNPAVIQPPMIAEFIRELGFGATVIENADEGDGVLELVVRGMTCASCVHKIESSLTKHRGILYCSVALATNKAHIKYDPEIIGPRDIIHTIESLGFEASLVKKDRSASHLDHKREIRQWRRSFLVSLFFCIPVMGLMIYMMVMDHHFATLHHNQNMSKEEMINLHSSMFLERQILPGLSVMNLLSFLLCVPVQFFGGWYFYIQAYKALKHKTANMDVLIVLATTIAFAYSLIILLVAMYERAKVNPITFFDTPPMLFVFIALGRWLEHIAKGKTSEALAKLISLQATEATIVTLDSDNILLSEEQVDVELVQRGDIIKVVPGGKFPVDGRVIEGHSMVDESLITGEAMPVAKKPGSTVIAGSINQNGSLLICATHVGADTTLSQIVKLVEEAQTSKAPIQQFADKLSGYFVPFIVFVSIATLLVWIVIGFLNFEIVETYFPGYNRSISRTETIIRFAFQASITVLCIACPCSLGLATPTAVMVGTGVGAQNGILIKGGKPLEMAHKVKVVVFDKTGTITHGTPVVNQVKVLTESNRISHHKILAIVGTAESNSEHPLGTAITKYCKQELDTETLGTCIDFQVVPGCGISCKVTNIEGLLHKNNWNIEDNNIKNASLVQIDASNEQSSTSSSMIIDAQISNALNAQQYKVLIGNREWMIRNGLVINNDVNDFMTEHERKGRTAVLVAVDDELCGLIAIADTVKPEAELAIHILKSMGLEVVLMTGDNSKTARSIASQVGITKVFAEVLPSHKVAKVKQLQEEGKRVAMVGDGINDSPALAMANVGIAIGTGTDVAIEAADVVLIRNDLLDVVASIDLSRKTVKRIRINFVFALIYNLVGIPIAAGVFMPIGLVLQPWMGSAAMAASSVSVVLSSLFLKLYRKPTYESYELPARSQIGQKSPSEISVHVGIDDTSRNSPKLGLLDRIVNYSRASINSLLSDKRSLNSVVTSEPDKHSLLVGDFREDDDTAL
Assay: Microscale thermophoresis (MST) binding to GFP-ATP7A(E1030K) mutant
Details: relative to wild type ATP7A
Source text: 7A is a model of MKV3-coordinating residues in ATP7A which are identical to those of ATP7B except that the negatively charged glutamate at position 1030 (E1030) of ATP7A corresponds to a positively lysine at position 1013 (K1013) in ATP7B. […] To confirm this the E1030 residue in ATP7A was mutated to a lysine to generate an ATP7A(E1030K) mutant protein.

`N#CC(C(=O)Nc1cccc(C(F)(F)F)c1)C(=S)Nc1ccccc1Cl` (stereo not shown) [MKV3] was tested, and the “increase of binding affinity by E1030K mutation in ATP7A” value was “approximately 2.7 fold”.
